According to the Biogen ADME set (Fang et al. 2023):
Values after ≈ are worked out from the molar mass of the structure shown.

Details: for aqueous solubility: pH 6.8

SMILES	MDR1-MDCK efflux ratio	intrinsic clearance, human liver microsomes [mL/min/kg]	intrinsic clearance, rat liver microsomes [mL/min/kg]	aqueous solubility [µg/mL]	fraction unbound, human plasma	fraction unbound, rat plasma
Cc1ccc2nc(-c3ccc(N(C)C)cc3)[nH]c2c1	0.316	120	2530	11.4 (≈ 45.5 µM)		
CC(=O)N(C)[C@H]1CC2(CCN(C(=O)COc3cc(C)c(Cl)c(C)c3)CC2)OC[C@]1(C)O	8.59	78.1	442			
CC1CCN(CC(=O)Nc2nc(-c3c[nH]c4ccccc34)cs2)CC1	0.826	37.9	315	5.19 (≈ 14.6 µM)		
c1cnc(N2CCC(Cc3ccncc3)CC2)nc1	0.575	10.9	146	58.1 (≈ 228 µM)		
Cc1cc(C(F)(F)F)nc(CCNC(=O)N(C)Cc2ccncc2C)n1	52	198	734			
c1ccc(-c2noc(NCC3CCC3)n2)cc1	0.605	119	741	34.7 (≈ 151 µM)		
c1ccn2cc(CSc3ccc(-n4cccn4)nn3)nc2c1	0.732	18.6	630			
O=C(Nc1nc2ccccc2[nH]1)c1ccncc1	1.24	≤ 4.74	109	5.09 (≈ 21.4 µM)		
CCn1ccc2cc(C(=O)N3CCN(c4ccc(C)cc4)C(=O)C3)ccc21	2.47	12	260	45.7 (≈ 127 µM)		
CC(C)c1nnc(CN(C(C)C)C2CCOCC2)o1	0.93	6.75	220			
Cc1ccc(OC[C@@H](O)[C@H](C)NC(C)C)c2c1CCC2	1.38	124	3140			
CCC1(O)CN(c2ncccc2C#N)C1	0.523	≤ 4.74	25	22.7 (≈ 112 µM)		
Cc1ccc(NC(=O)CN2[C@H](Cc3ccccc3)C[C@]3(C)NC(=O)CCC[C@H]23)cc1F	12.4	499	3320		0.00729	0.023
CC(=O)N1CCN(CCNC(=O)N2CCc3sccc3C2)CC1	30.4	10.1	74.2	55.8 (≈ 166 µM)		
Cc1nc(N2CCc3c(ncn3C)C2)c2c(C)c(C)sc2n1	1.94	94.2	655	47.5 (≈ 152 µM)		
Cc1ccc(Cn2ccn(-c3ccc(F)c(F)c3)c(=O)c2=O)cc1	0.671			0.35 (≈ 1.07 µM)		
CN1CCN(c2oc(-c3cccc4ccccc34)nc2C#N)CC1	0.363	94.3	1600			
C=CC(=O)Nc1cccc(Oc2nc(Nc3ccc(N4CCN(C)CC4)c(F)c3)nc3[nH]ccc23)c1	50.6	26.8	344		0.0109	0.00726
Cc1ccc(C)c(NC(=O)c2cccc(-c3ncon3)c2)c1		41.7	164			
O=C(c1cc(F)ccc1F)N1CCN(C(=O)C2CC2)CC1	1.21	≤ 4.74	19.8			
OCC1CN(c2nc3cc(F)ccc3o2)C1	0.704	≤ 4.74	17.2			
CCN(CC)CC(=O)Nc1ccc(Oc2ccc(C)nn2)cc1	1.62	≤ 4.74	31.6			
Cc1ccsc1C(=O)Nc1nc2ccccc2s1	0.136			0.29 (≈ 1.06 µM)		
CO[C@@H](C(=O)Nc1cc2c(C)cc(=O)oc2cc1C)c1ccccc1	1.15	12.8	256	39.8 (≈ 118 µM)		
O=C(NC1CC1)c1cccnc1Oc1ccccc1	0.592	≤ 4.74	11.7	65.2 (≈ 257 µM)		
O=C(Nc1ccc(S(=O)(=O)Nc2ccnn2-c2ccccc2)cc1)c1ccco1	48.8	8.1	102	63.4 (≈ 155 µM)		
COc1cccc2c1Oc1nc(-c3ccccc3)[nH]c(=S)c1C2				0.35 (≈ 1.09 µM)		

SMILES	MDR1-MDCK efflux ratio	intrinsic clearance, human liver microsomes [mL/min/kg]	intrinsic clearance, rat liver microsomes [mL/min/kg]	aqueous solubility [µg/mL]	fraction unbound, human plasma	fraction unbound, rat plasma
COc1ccc(-c2nn3c(-c4ccco4)nnc3c3ccccc23)cc1	0.526			0.18 (≈ 0.526 µM)		
CCOc1cccc(NS(C)(=O)=O)n1	0.969	≤ 4.74	≤ 10.7			
O=c1ncn2nc(Sc3ccc(F)cc3F)ccc2c1-c1c(Cl)cccc1Cl	8.01	14.6	90.4	12.9 (≈ 29.6 µM)		
Cc1ccnc(NC(=O)CN(C)c2ncnc3sc4c(c23)CCC(C)C4)c1 (stereo not drawn)				3.88 (≈ 10.2 µM)		
Cc1nnc(N2CCCSCC2)c(C#N)c1C	0.646	35.7	1530	23.6 (≈ 95.1 µM)		
CN(C(=O)CSC(C)(C)C)c1ccccc1C#N	0.808	47.3	687			
C=CCn1c(=O)c2cnc(Nc3ccc(N4CCN(C)CC4)cc3)nc2n1-c1cccc(C(C)(C)O)n1	63.4	32.7	67.9			
O=C(O)c1ccccc1COc1cccc2cccnc12	1.76	≤ 4.74	12.4			
CN(Cc1cccnc1)Cc1ccc(C#N)o1	0.648	9.78	69.7	30.7 (≈ 135 µM)		
OC(Cn1cncn1)(Cn1cncn1)c1ccc(F)cc1F	5.25	≤ 4.74	≤ 10.7	42.9 (≈ 140 µM)		
CN1C(=O)[C@H]2CN(CC3=CC[C@H]4C[C@@H]3C4(C)C)C[C@H]2C1=O	0.768	207	2390			
CCN(CC)Cc1cnc(NC(=O)c2ccccc2)s1		≤ 4.74	192			
COc1cncc(-c2ccnc3[nH]ccc23)c1	0.671	67.1	105	24 (≈ 107 µM)		
CNC(=O)c1ccc(N2CCCc3cc(OC)ccc3C2)nn1	0.886	11.8	860			
COc1cccc(OC)c1-c1cc(C(=O)N[C@@H](CC(C)C)C(=O)O)nn1-c1ccnc2cc(Cl)ccc12	39.1	9.49	108	90.4 (≈ 173 µM)		
COc1ccc2nc(C)nc(N3CC(CO)C3)c2c1	11.5	5.26	13.6	29.3 (≈ 113 µM)		
CC(C)c1cnc(COc2ccc(Br)nc2)o1	0.527	73	983	41.7 (≈ 140 µM)		
O=c1ccc(C2CC2)nn1CC1CN(CC2(O)CCCC2)C1	12.5	≤ 4.74	84	52.6 (≈ 173 µM)		
Cc1ccccc1N(CC(=O)O)S(C)(=O)=O				44.7 (≈ 184 µM)		
CN(C)c1cccc(C(=O)N2CCCC(c3cccc(-c4cccs4)n3)C2)c1 (stereo not drawn)	0.647	499	3630	2.1 (≈ 5.36 µM)		
CCc1oc2c(-n3cnnc3)cccc2c1C	0.587	111	169	22.6 (≈ 99.4 µM)		
COc1ccc(C)cc1-n1ccc(C(=O)Nc2c3c(nn2C)CCC3)n1	1.45	46.5	255	33.2 (≈ 94.5 µM)		
Cc1cc(C)c(S(=O)(=O)Nc2ccccc2)c(C)c1		137	4160			
c1cc(-c2nnc(NCc3cncs3)o2)ccn1	1.9	≤ 4.74	91.4			
CC(=O)Nc1ncc(C(=O)O)s1					0.66	0.715
O=C(OCC1CCSCC1)c1cccc(-n2cccn2)n1	0.495	679	2200			
Cc1nc2c(c(N(C)Cc3ccccc3)n1)CCN(Cc1ccccc1)C2	0.742	657	4170	29.7 (≈ 82.8 µM)		
